The values that follow are results of earlier work, collected in US20020146399A1, “Sorbic acid product comprising probiotics as addition to feedstuffs in agricultural livestock rearing” (priority 2001, published 2002).

For data set [1] the following is noted: extensive data and decades of use in human food and animal feeds.

For `C/C=C/C=C/C(=O)O` [Sorbic acid, trans,trans-2,4-hexadienoic acid], the “solubility in cold water” value was “dissolves only slightly”. Further, the toxicity result in data set [1] is on record as “virtually nontoxic”.
